Results published in patent publication US5294603A, “Pharmaceutical compositions containing didemnins” (The Board of Trustees of The University of Illinois, priority 1992, dated 1994).
Values after ≈ are worked out from the molar mass of the structure shown. Like-named read-outs stand apart in the source and are kept apart here. Numbered stars: 1 amine (or outer) side, 2 acyl side, 3 side chain; on linkers, the order of the positions; unused ones are H or OH. Bridge positions count the residues as written; N and C are the ends. Square brackets hold non-standard residues; d marks the D form. Peptide text beside a SMILES is read from it. * marks the point of attachment. X1 = CC[C@H](C)[C@@H](N[*:1])[C@@H](O)CC(=O)O[C@H](C(=O)[C@H](C)C(=O)[*:2])C(C)C; X9 = CCC(C)C(N[*:1])C(O)CC(=O)OC(C(=O)C(C)C(=O)[*:2])C(C)C; NMeY = CN[CH](Cc1ccc(O)cc1)C(=O)O; NMeCha = CN[C@@H](CC1CCCCC1)C(=O)O; Stearoyl = CCCCCCCCCCCCCCCCCC(=O)*; X8 = CC(C(=O)*)N1C(=O)c2ccccc2C1=O; dNMeL = CN[C@H](CC(C)C)C(=O)O; pGlu = O=C1CC[C@@H](C(=O)O)N1; Lauroyl = CCCCCCCCCCCC(=O)*; NMeL = CN[CH](CC(C)C)C(=O)O; X5 = O=C(Cc1ccccc1)C(=O)*; Octanoyl = CCCCCCCC(=O)*; Pyruvoyl = CC(=O)C(=O)*; Hexanoyl = CCCCCC(=O)*; Pentanoyl = CCCCC(=O)*; Lac = C[C@H](O)C(=O)O; Sar = CNCC(=O)O

Experiments:
[1] = test system: L1210; assay: L1210 cytotoxicity, inhibition at fixed doses (Table 10); type: cell-based, murine
[2] = test system: L1210 murine leukemia cells; conditions: Table 9
[3] = test system: Visna virus (VIV); type: cell-based; set-up: key to % Protection / VIV Protection: I, indeterminate
[4] = test system: L1210; conditions: for cytotoxicity (result in words): Table 1 footnote and text
[5] = test system: L1210 cells
[6] = test system: Nb2 cells, rat T-cell node lymphoma; assay: Competitive binding with [3H]didemnin B to Nb2 cells; conditions: 3 h at 37° C.
Description: The immunosuppressive assay was performed by measuring competitive binding of tested compounds with [^3 H]didemnin B to Nb2 cells, rat T-cell node lymphoma. See, Russell, D. H., et al., J. Immunology, 1987, 138, 276-284.
^a Competing didemnins incubated with approximately 25 ng of [^3

[7] = dose 25 ng/mL, tested 4/18/1991
[8] = dose 25 ng/mL, tested 4/22/1990
[9] = dose 250 ng/mL, tested 4/18/1991
[10] = dose 250 ng/mL, tested 4/22/1990

CC[C@H](C)[C@H]1NC(=O)[C@@H](NC(=O)[C@@H](CC(C)C)N(C)C(=O)[C@@H]2CCCN2C(=O)[C@H](C)O)[C@@H](C)OC(=O)[C@H](CC2CCCCC2)N(C)C(=O)[C@@H]2CCCN2C(=O)[C@H](CC(C)C)NC(=O)[C@@H](C)C(=O)[C@H](C(C)C)OC(=O)C[C@@H]1O [[H6 -N-MePhe^5] didemnin B (118), [Hexahydro-N-MePhe^5]didemnin B]
Inhibition (%) [1, 7]: 99%
Inhibition (%) [1, 8]: 99%
Inhibition (%) [1, 9]: 99%
Inhibition (%) [1, 10]: 99%

CC[C@H](C)[C@H]1NC(=O)[C@@H](NC(=O)[C@@H](CC(C)C)N(C)C(=O)[C@@H]2CCCN2C(=O)[C@H](C)OC(=O)[C@H](CCC(N)=O)NC(=O)[C@@H]2CCC(=O)N2)[C@@H](C)OC(=O)[C@H](Cc2ccc(OC)cc2)N(C)C(=O)[C@@H]2CCCN2C(=O)[C@H](CC(C)C)NC(=O)[C@@H](C)C(=O)[C@H](C(C)C)OC(=O)C[C@@H]1O [Didemnin M (12), Didemnin M] ([pGlu]Q[Lac]P[dNMeL]T[X1]LP[NMeY](Me); ester 6-C)
Cytotoxicity L1210 IC50 [2]: 0.4 ng/mL
VIV Protection [3]: -73

CC[C@H](C)[C@H]1NC(=O)[C@@H](NC(=O)[C@@H](CC(C)C)NC)[C@@H](C)OC(=O)[C@H](CC2CCCCC2)N(C)C(=O)[C@@H]2CCCN2C(=O)[C@H](CC(C)C)NC(=O)[C@@H](C)C(=O)[C@H](C(C)C)OC(=O)C[C@@H]1O [[H6 -N-MePhe^5] didemnin A (117), [Hexahydro-N-MePhe^5]didemnin A] (H-[dNMeL]T[X1]LP[NMeCha]; ester 2-C)
Inhibition (%) [1, 7]: 25%
Inhibition (%) [1, 8]: 75%
Inhibition (%) [1, 9]: 94%
Inhibition (%) [1, 10]: 98%

CCCCC(=O)N(C)[C@H](CC(C)C)C(=O)N[C@@H]1C(=O)N[C@H]([C@@H](C)CC)[C@@H](O)CC(=O)O[C@@H](C(C)C)C(=O)[C@H](C)C(=O)N[C@@H](CC(C)C)C(=O)N2CCC[C@H]2C(=O)N(C)[C@@H](Cc2ccc(OC)cc2)C(=O)O[C@@H]1C [N^a -Pentanoyl-, N-pentanoyl didemnin A] (Pentanoyl-[dNMeL]T[X1]LP[NMeY](Me); ester 2-C)
cytotoxicity (result in words) [4]: retained the cytotoxicity of didemnin B
Cytotoxicity percent L1210 inhibition ([4]; dose 5 ng/mL): 56%
Cytotoxicity percent L1210 inhibition ([4]; dose 12.5 ng/mL): 81%
Cytotoxicity percent L1210 inhibition ([4]; dose 25 ng/mL): 91%

Didemnin Y [Didemnin Y (11)]
Cytotoxicity L1210 IC50 [2]: 2 ng/mL
VIV Protection [3]: -33

N-palmitoyl didemnin A
cytotoxicity (result in words) [4]: inactive

[AnhydroIst^1 ]Phthalimide didemnin B
Inhibition (%) [1, 7]: 81%
Inhibition (%) [1, 9]: 99%

Didemnin D [Didemnin D (19)]
Cytotoxicity L1210 IC50 [2]: 0.5 ng/mL
VIV Protection [3]: -53

CCC(C)C1NC(=O)C(NC(=O)C(CC(C)C)N(C)C(=O)C2CCCN2C(=O)C(C)N2C(=O)c3ccccc3C2=O)C(C)OC(=O)C(Cc2ccc(OC)cc2)N(C)C(=O)C2CCCN2C(=O)C(CC(C)C)NC(=O)C(C)C(=O)C(C(C)C)OC(=O)CC1O (centres unmarked) [Phthalimidedidemnin B (82), Phthalimide didemnin B] (X8-P[NMeL]T[X9]LP[NMeY](Me); ester 3-C; configuration not given here)
Inhibition (%) [1, 7]: 98%
Inhibition (%) [1, 9]: 99%

CC[C@H](C)[C@H]1NC(=O)[C@@H](NC(=O)[C@@H](CC(C)C)N(C)C(=O)[C@@H]2CCCN2C(=O)C(=O)Cc2ccccc2)[C@@H](C)OC(=O)[C@H](Cc2ccc(OC)cc2)N(C)C(=O)[C@@H]2CCCN2C(=O)[C@H](CC(C)C)NC(=O)[C@@H](C)C(=O)[C@H](C(C)C)OC(=O)C[C@@H]1O [Phepyruv-Pro-DA, PhePyruv-Pro Didemnin A] (X5-P[dNMeL]T[X1]LP[NMeY](Me); ester 3-C)
IC50 [5]: 3.5 ng/mL (≈ 2.95 nM)
cytotoxicity compared with DDB [5]: only partially active
% Protection [3]: I

CC[C@H](C)[C@H]1NC(=O)[C@@H](NC(=O)[C@@H](CC(C)C)N(C)C(=O)[C@@H]2CCCN2C(C)=O)[C@@H](C)OC(=O)[C@H](Cc2ccc(OC)cc2)N(C)C(=O)[C@@H]2CCCN2C(=O)[C@H](CC(C)C)NC(=O)[C@@H](C)C(=O)[C@H](C(C)C)OC(=O)C[C@@H]1O [[Acetyl^9]Didemnin B (103), [Acetyl^9]didemnin B] (Ac-P[dNMeL]T[X1]LP[NMeY](Me); ester 3-C)
Inhibition of [3H]didemnin B binding (%) ([6]; 0.001 μg/mL): 3%
Inhibition of [3H]didemnin B binding (%) ([6]; 0.01 μg/mL): 2%
Inhibition of [3H]didemnin B binding (%) ([6]; 0.1 μg/mL): 67%
Inhibition of [3H]didemnin B binding (%) ([6]; 1 μg/mL): 85%
Cytotoxicity L1210 IC50 [2]: 0.2 ng/mL
VIV Protection [3]: -123

CC[C@H](C)[C@H]1NC(=O)[C@@H](NC(=O)[C@@H](CC(C)C)N(C)C(=O)[C@@H]2CCCN2C(=O)[C@H](C)OC(=O)[C@@H]2CCC(=O)N2)[C@@H](C)OC(=O)[C@H](Cc2ccc(OC)cc2)N(C)C(=O)[C@@H]2CCCN2C(=O)[C@H](CC(C)C)NC(=O)[C@@H](C)C(=O)[C@H](C(C)C)OC(=O)C[C@@H]1O [pGlu-didemnin B (113), O-Pyroglutamyldidemnin B] ([pGlu][Lac]P[dNMeL]T[X1]LP[NMeY](Me); ester 5-C)
Cytotoxicity L1210 IC50 [2]: 0.4 ng/mL
VIV Protection [3]: -65

CCCCCCCCCCCCCCCCCC(=O)N(C)[C@H](CC(C)C)C(=O)N[C@@H]1C(=O)N[C@H]([C@@H](C)CC)[C@@H](O)CC(=O)O[C@@H](C(C)C)C(=O)[C@H](C)C(=O)N[C@@H](CC(C)C)C(=O)N2CCC[C@H]2C(=O)N(C)[C@@H](Cc2ccc(OC)cc2)C(=O)O[C@@H]1C [stearoyl, N-stearoyl didemnin A] (Stearoyl-[dNMeL]T[X1]LP[NMeY](Me); ester 2-C)
cytotoxicity (result in words) [4]: inactive

Isodidemnin A1 [Isodidemnin A1 (1a)]
Cytotoxicity L1210 IC50 [2]: 10 ng/mL
VIV Protection [3]: < 0

Nordidemnin A [Nordidemnin A (21)]
Cytotoxicity L1210 IC50 [2]: 30 ng/mL
VIV Protection ([3]; Table 9, 0.1 μg/mL): < 0%

CC[C@H](C)[C@H]1NC(=O)[C@@H](NC(=O)[C@@H](CC(C)C)NC)[C@@H](C)OC(=O)[C@H](CC2CCC(OC)CC2)N(C)C(=O)[C@@H]2CCCN2C(=O)[C@H](CC(C)C)NC(=O)[C@@H](C)C(=O)[C@H](C(C)C)OC(=O)C[C@@H]1O (some centres unmarked) [[H6 Me2 Tyr^5]didemnin A (115), [HexahydroMe2 Tyr^5]didemnin A]
Inhibition (%) [1, 8]: 17%
Inhibition (%) [1, 10]: 94%

N-(CH3 ONsu)didemnin A [N-(CH3 ONsu)-didemnin A (111)]
VIV Protection [3]: -43

CCCCCC(=O)N(C)[C@H](CC(C)C)C(=O)N[C@@H]1C(=O)N[C@H]([C@@H](C)CC)[C@@H](O)CC(=O)O[C@@H](C(C)C)C(=O)[C@H](C)C(=O)N[C@@H](CC(C)C)C(=O)N2CCC[C@H]2C(=O)N(C)[C@@H](Cc2ccc(OC)cc2)C(=O)O[C@@H]1C [N^a -Hexanoyl-, N-hexanoyl didemnin A] (Hexanoyl-[dNMeL]T[X1]LP[NMeY](Me); ester 2-C)
cytotoxicity (result in words) [4]: retained the cytotoxicity of didemnin B
Cytotoxicity percent L1210 inhibition ([4]; dose 5 ng/mL): 73%
Cytotoxicity percent L1210 inhibition ([4]; dose 12.5 ng/mL): 89%
Cytotoxicity percent L1210 inhibition ([4]; dose 25 ng/mL): 92%

Didemnin X [Didemnin X (10)]
Cytotoxicity L1210 IC50 [2]: 2 ng/mL
VIV Protection [3]: -25

CC[C@H](C)[C@H]1NC(=O)[C@@H](NC(=O)[C@@H](CC(C)C)N(C)C(=O)CN(C)C(=O)C(C)=O)[C@@H](C)OC(=O)[C@H](Cc2ccc(OC)cc2)N(C)C(=O)[C@@H]2CCCN2C(=O)[C@H](CC(C)C)NC(=O)[C@@H](C)C(=O)[C@H](C(C)C)OC(=O)C[C@@H]1O [Pyruv-Sar-DA, Pyruv-Sar Didemnin A] (Pyruvoyl-[Sar][dNMeL]T[X1]LP[NMeY](Me); ester 3-C)
IC50 [5]: 1 ng/mL (≈ 0.922 nM)
cytotoxicity [5]: completely inactive
% Protection [3]: I

CC[C@H](C)[C@H]1NC(=O)[C@@H](NC(=O)[C@@H](CC(C)C)N(C)C(=O)[C@@H]2CCCN2C(=O)[C@H](C)O)[C@@H](C)OC(=O)[C@H](CC2CCC(OC)CC2)N(C)C(=O)[C@@H]2CCCN2C(=O)[C@H](CC(C)C)NC(=O)[C@@H](C)C(=O)[C@H](C(C)C)OC(=O)C[C@@H]1O (some centres unmarked) [[H6 Me2 Tyr^5]didemnin B (116), [HexahydroMe2 Tyr^5]didemnin B]
Inhibition (%) [1, 7]: 99%
Inhibition (%) [1, 8]: 98%
Inhibition (%) [1, 9]: 99%
Inhibition (%) [1, 10]: 99%

Didemnin E [Didemnin E (20)]
Cytotoxicity L1210 IC50 [2]: 0.5 ng/mL
VIV Protection [3]: -73

CCCCCCCC(=O)N(C)[C@H](CC(C)C)C(=O)N[C@@H]1C(=O)N[C@H]([C@@H](C)CC)[C@@H](O)CC(=O)O[C@@H](C(C)C)C(=O)[C@H](C)C(=O)N[C@@H](CC(C)C)C(=O)N2CCC[C@H]2C(=O)N(C)[C@@H](Cc2ccc(OC)cc2)C(=O)O[C@@H]1C [N^a -Octanoyl-, N-octanoyl didemnin A] (Octanoyl-[dNMeL]T[X1]LP[NMeY](Me); ester 2-C)
cytotoxicity (result in words) [4]: retained the cytotoxicity of didemnin B
Cytotoxicity percent L1210 inhibition ([4]; dose 5 ng/mL): 89%
Cytotoxicity percent L1210 inhibition ([4]; dose 12.5 ng/mL): 93%
Cytotoxicity percent L1210 inhibition ([4]; dose 25 ng/mL): 94%

CCCCCCCCCCCC(=O)N(C)[C@H](CC(C)C)C(=O)N[C@@H]1C(=O)N[C@H]([C@@H](C)CC)[C@@H](O)CC(=O)O[C@@H](C(C)C)C(=O)[C@H](C)C(=O)N[C@@H](CC(C)C)C(=O)N2CCC[C@H]2C(=O)N(C)[C@@H](Cc2ccc(OC)cc2)C(=O)O[C@@H]1C [lauroyl, N-lauroyl didemnin A] (Lauroyl-[dNMeL]T[X1]LP[NMeY](Me); ester 2-C)
cytotoxicity (result in words) [4]: inactive
